{"source": "patent US12502374B2", "about": "“Composition for preventing, alleviating, or treating inflammatory disease containing isookanin or salt thereof as active ingredient” (BioSpectrum, Inc., priority 2020, dated 2025)", "key": {"[1]": {"tested_on": "PGE2", "assay": "LPS-induced PGE2 secretion in RAW 264.7 macrophages (ELISA)", "assay_type": "cell-based, mouse", "conditions": "1, 5 and 10 ppm, LPS 100 ng/mL, FIG. 7", "procedure": "Mouse macrophages (RAW 264.7) were seeded in a 24-well microplate at a density of about 2×10^5 cells per well, and cultured in an incubator for 24 hours at 37° C. under 5% CO2. Thereafter, the cells were treated with each of 1, 5 and 10 ppm of isookanin, and then treated with LPS (100 ng/mL) and cultured, and then the cell culture medium was collected. Next, the secretion level of PGE2 was measured using an ELISA kit. As a negative control group (−), mouse macrophages not treated with isookanin and LPS were used."}, "[2]": {"molecular_target": "Janus kinase 1 (Homo sapiens, UniProt P23458)", "sequence (P23458 whole entry, species assumed)": "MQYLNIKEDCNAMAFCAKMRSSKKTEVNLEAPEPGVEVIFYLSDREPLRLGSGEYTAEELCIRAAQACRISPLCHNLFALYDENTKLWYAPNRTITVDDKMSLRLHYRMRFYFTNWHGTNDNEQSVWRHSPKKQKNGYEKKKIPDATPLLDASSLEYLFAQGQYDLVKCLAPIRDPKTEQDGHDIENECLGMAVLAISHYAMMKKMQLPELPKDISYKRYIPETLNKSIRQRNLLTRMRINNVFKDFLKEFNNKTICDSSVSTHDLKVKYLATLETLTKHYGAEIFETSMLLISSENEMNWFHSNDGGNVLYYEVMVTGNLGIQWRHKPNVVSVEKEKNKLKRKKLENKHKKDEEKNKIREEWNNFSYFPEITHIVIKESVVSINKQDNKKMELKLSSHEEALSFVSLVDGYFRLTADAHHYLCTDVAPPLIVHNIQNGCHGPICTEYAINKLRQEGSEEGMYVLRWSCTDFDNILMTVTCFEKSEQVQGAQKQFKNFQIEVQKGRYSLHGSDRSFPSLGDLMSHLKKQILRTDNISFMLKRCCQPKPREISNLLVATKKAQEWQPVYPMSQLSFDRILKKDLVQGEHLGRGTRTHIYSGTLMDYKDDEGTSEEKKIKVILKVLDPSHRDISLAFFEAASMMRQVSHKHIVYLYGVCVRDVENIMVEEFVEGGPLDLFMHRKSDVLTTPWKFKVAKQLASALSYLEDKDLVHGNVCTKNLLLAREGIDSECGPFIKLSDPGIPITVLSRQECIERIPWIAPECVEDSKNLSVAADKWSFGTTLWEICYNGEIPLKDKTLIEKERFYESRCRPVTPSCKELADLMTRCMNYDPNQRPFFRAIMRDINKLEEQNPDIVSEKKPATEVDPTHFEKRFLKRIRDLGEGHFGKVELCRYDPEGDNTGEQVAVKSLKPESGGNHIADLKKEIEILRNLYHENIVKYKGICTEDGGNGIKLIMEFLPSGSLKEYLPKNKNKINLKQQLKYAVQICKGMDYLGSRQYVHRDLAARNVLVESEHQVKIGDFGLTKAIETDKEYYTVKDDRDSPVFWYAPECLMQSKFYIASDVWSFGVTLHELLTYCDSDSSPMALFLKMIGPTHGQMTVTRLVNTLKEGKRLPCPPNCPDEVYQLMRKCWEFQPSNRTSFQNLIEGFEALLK", "assay": "Janus kinase 1 activity inhibition, HTRF KinEASE-TK kit (TR-FRET)", "assay_type": "biochemical", "conditions": "FIG. 1", "procedure": "The effect of isookanin on the inhibition of Janus kinase 1 activity was measured using the HTRF KinEASE-TK kit (Cisbio, France). HTRF is a time-resolved fluorescence resonance energy transfer technology (TR-FRET) analysis method, which is applied to high-throughput screening (HTS) and is one of the methods widely used in drug development. From general cytokine measurement, enzyme activity, protein phosphorylation, protein-protein interaction, cAMP measurement, and the like can be measured by fluorescence through acceptor/donor reaction, and HTRF has an advantage in that, since measurement is carried out in two wavelength regions, it is possible to reduce interference from buffers and media. All components of the HTRF KinEase™-TK kit were handled according to the instructions. For kinases, the ability of a test substance to inhibit kinase activity is measured by allowing a kinase to react with an appropriate substrate in the presence or absence of a sample and capturing the phosphorylated substrate by a detection reagent. Briefly, the following two steps performed.\nA kinase is allowed to react with an appropriate substrate in the presence and absence of a sample. Enzyme buffer is used as a control (−) instead of the sample, and the group treated with 100 nM of loxolitinib is used as a positive control. […]\nStep 2. Fluorescence Detection […]"}, "[3]": {"molecular_target": "T1, TLR-2 (Homo sapiens, UniProt O60603)", "T1 construct": "host or cells: HEK-Blue TLR2 cell line", "T1 sequence (O60603 21-784)": "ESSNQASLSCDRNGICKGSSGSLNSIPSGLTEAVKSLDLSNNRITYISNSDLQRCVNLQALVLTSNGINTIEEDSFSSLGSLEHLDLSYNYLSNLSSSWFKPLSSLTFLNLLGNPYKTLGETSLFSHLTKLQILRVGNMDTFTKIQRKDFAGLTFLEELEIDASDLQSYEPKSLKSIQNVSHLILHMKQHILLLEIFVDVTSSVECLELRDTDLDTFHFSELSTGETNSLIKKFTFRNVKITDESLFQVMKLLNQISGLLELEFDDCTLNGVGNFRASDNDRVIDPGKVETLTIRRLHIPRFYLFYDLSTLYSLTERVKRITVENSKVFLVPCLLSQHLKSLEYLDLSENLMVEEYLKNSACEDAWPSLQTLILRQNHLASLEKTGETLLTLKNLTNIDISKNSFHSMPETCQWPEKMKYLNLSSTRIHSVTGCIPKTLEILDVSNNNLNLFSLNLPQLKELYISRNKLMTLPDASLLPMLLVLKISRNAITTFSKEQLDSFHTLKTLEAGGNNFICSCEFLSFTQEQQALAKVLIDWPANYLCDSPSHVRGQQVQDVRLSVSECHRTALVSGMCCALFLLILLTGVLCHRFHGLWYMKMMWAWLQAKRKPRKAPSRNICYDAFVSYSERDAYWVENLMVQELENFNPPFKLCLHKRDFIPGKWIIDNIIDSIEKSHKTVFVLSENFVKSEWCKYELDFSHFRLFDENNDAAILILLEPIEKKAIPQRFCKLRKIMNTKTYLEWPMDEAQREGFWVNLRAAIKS", "assay": "Chitin-induced TLR-2 activation, HEK-Blue TLR2 SEAP reporter cells", "assay_type": "cell-based", "conditions": "1 hour pretreatment, then chitin for 12 hours; FIG. 3", "procedure": "The anti-inflammatory effect of isookanin by inhibition of TLR-2 activation was measured. The HEK-Blue™ TLR2 cell line (InvivoGen, USA) co-transfected with TLR-2 and SEAP (secreted embryonic alkaline phosphatase) reporter genes was used. The SEAP reporter gene contains transcription factors NF-kB and AP-1 binding sites, and thus when NF-kB and AP-1 are activated by TLR-2 activation, SEAP is produced and secreted extracellularly. Specifically, the HEK-Blue™ TLR2 cell line was cultured in DMEM containing 10% FBS, and then seeded in a 48-well plate at a density of 1×10^5 cells per well, and pretreated with isookanin for 1 hour. Next, the cells were treated with chitin (Carbosynth, USA) and cultured again for 12 hours. Here, chitin is a component of demodex and is known as a major trigger of inflammatory rosacea. […] 20 μl of the culture supernatant of the cells cultured for 12 hours was taken, mixed with 80 μl of QUANTI-Blue™ (InvivoGen, USA), and then incubated at 37° C. for 1 hour. The degree of TLR-2 activation was measured by comparing the degree of color development caused by the reaction between Quanti-Blue and extracellularly secreted SEAP, and the results are shown in FIG. 3."}, "[4]": {"molecular_target": "T2, recombinant kallikrein-5 (Homo sapiens, UniProt Q9Y337)", "T2 construct": "purchased R&D Systems, USA", "T2 sequence (Q9Y337 23-293)": "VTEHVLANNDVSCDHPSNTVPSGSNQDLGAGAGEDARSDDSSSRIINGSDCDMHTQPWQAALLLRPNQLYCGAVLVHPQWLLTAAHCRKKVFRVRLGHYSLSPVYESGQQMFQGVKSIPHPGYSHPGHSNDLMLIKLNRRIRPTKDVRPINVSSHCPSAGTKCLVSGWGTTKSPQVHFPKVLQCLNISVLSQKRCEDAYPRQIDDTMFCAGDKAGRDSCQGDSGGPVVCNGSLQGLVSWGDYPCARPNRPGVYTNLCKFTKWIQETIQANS", "assay": "Kallikrein-5 enzymatic activity, fluorescent substrate Boc-Val-Pro-Arg-AMC", "assay_type": "biochemical", "conditions": "10 and 20 ppm; FIG. 2", "procedure": "To measure the enzymatic activity of kallikrein-5 which is a trypsin-like proteolytic enzyme present in skin keratinocytes, recombinant kallikrein-5 (R&D Systems, USA) was allowed to react with the fluorescently labeled substrate Boc-Val-Pro-Arg-AMC (R&D Systems, USA), and the enzymatic activity was measured. 50 μl of 2 μg/ml recombinant kallikrein-5 was treated with different concentrations (10 and 20 ppm) of isookanin and then allowed to react at room temperature for 10 minutes, and then 50 μl of 800 μM kallikrein-5 substrate was added thereto, followed by measurement in kinetic mode at 380 nm/480 nm fluorescence for 5 minutes. As a positive control, the trypsin inhibitor Leupeptin (Sigma Aldrich, USA) was used, and as a negative control, non-treated recombinant kallikrein was used. For evaluation of the degree of activity, based on the value obtained by subtracting the lowest fluorescence value from the highest fluorescence value among the measurement values under each condition, the fluorescence value of the group treated with isookanin was compared with the fluorescence value of the group not treated with isookanin, and the results are shown in FIG. 2."}, "[5]": {"tested_on": "HMEC-1", "assay": "PGE2-induced vascular endothelial cell proliferation (MTT assay)", "assay_type": "cell-based, human", "conditions": "1 hour pretreatment; 20 μM PGE2, 48 hours; FIG. 8", "procedure": "Human microvascular […] cells (HMEC-1, ATCC, USA) were cultured in MCDB131 medium (Thermo Fisher, USA) containing 10 ng/ml EGF, 1 μg/mL cortisol, 10 mM glutamine and 10% FBS, and then seeded in a 24-well plate at a density of 5×10^4 cells per well and cultured in an incubator for 24 hours at cultured at 37° C. under 5% CO2. After culturing, each well was pretreated with each concentration of isookanin for 1 hour, and then treated with 20 μM PGE2 and cultured again for 48 hours. After 48 hours of culturing, the degree of vascular cell proliferation was measured using MTT assay, and the results are shown in FIG. 8."}}, "data": [{"smiles": "O=C1C[C@@H](c2ccc(O)c(O)c2)Oc2c1ccc(O)c2O", "note": "[isookanin]", "values": [{"measurement": "inhibition of LPS-induced PGE2 expression", "setting": "[1]", "result": "inhibiting the LPS-induced expression of PGE2 in a concentration-dependent manner"}, {"measurement": "inhibition of Janus kinase 1 activity", "setting": "[2]", "result": "significantly inhibited"}, {"measurement": "inhibition of chitin-induced activation of TLR-2 signaling", "setting": "[3]", "result": "effectively inhibiting the chitin-induced activation of TLR-2 signaling"}, {"measurement": "inhibition of kallikrein-5 activity", "setting": "[4]", "result": "inhibitory effect on kallikrein-5 activity in a concentration-dependent manner"}, {"measurement": "inhibition of human vascular endothelial cell proliferation induced by PGE2", "setting": "[5]", "result": "effectively inhibiting human vascular endothelial cell proliferation induced by PGE2"}]}]}
